Assay results as given in US20220054588A1, “USE OF SAP FOR THE TREATMENT OF EUROTIOMYCETES FUNGI INFECTIONS” (HUMANITAS MIRASOLE S.P.A., priority 2018, published 2022).

Tested on: human neutrophils
Assay: Phagocytosis of A. fumigatus conidia by isolated human neutrophils in normal or complement-depleted human sera
Assay type: cell-based
Protocol: FIG. 8 depicts the initiation of classical complement activation at the bases of SAP-mediated phagocytosis. a) fluorescein-labelled AF conidia (1.6×10^6) phagocytosis by freshly isolated human neutrophils (2×10^5) in presence of sera depleted (−) from complement components and the effect of SAP opsonisation after 1 and 30 min AF conidia (2×10^8) opsonisation with 100 μg of human native SAP. 5% (left) or 10% (right) of human sera were used. Mean±SEM;*, P<0.05;**, P<0.01;***, P<0.005;***, P<0.0001 (Mann-Whitney test). b) FACS analysis of C1q deposition on AF conidia (1×10^7) in presence of plasma from wt or Apcs^−/− mice. Mean±SEM;*, P=0.05.
Human neutrophils were isolated from fresh whole blood of healthy volunteers through separation from erythrocytes by 3% dextran (GE Healthcare Life Sciences) density gradient sedimentation followed by Ficoll-Paque PLUS (GE Healthcare Life Sciences) and 62% Percoll® (Sigma-Aldrich) centrifugation as previously described (Moalli et al., 2010). Purity, determined by FACS analysis on forward scatter/side scatter parameters, was routinely >98%. 1×10^5 neutrophils were incubated for 1 and 30 min at 37° C. in 50 μl RPMI-1640 medium with 5 and 10% normal human serum (NS) or complement depleted sera and 1×10^5 FITC-labelled A. fumigatus conidia. Cells were transferred on ice and, after washing with PBS, pH 7.4, containing 10 mM EDTA and 0.2% bovine serum albumin (BSA; Sigma-Aldrich), FITC fluorescence in neutrophils (CD45-positive cells, neutrophils defined as FSC-A^high/SSC-A^high) was analysed by BD FACS Canto™ II Flow Cytometer (BD Biosciences). NS and sera depleted for C3, C1q, MBL, FB and FH were all obtained from CompTech (Complement Technology, Inc., USA).

What does the source list for “human native SAP: Native SAP from human serum purchased by Merck-Millipore; Serum Amyloid P component, SEQ ID NO: 1”?
potentiation of phagocytosis (C1q-depleted serum): but not; potentiation of phagocytosis (C3-depleted serum): but not; potentiation of phagocytosis (MBL-depleted serum 5%): 55.5±17.0%; potentiation of phagocytosis (MBL-depleted serum 10%): 19.8±6.1%; potentiation of phagocytosis (normal human serum 5%): 37.4±10.3%; potentiation of phagocytosis (normal human serum 10%): 18.3±2.0%
